In assay [1] the target is T1, integrin α4β1 (RAMOS human cells adhering to VCAM-1) (Homo sapiens, UniProt P05556+P13612).
T1 construct: Ramos cells, which express integrin α4β1; host or cells: RAMOS
Description: Integrin α4β1-VCAM cell adhesion assay (RAMOS cells). The format is cell-based. To be noted: for IC50: Ramos cells adhering to VCAM, read-out: Ramos Adhesion α4β1/VCAM IC50; for Ratio Ramos/RPMI: ratio of cell adhesion IC50s, Ramos α4β1/VCAM over RPMI8866 α4β7/MAdCAM. In outline: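 Human RAMOS cells loaded with calcein ([…] in PBS, 37° C, 30 min) allowed to adhere to VCAM-1-coated wells blocked with 1% milk. After PBS washes, adherent-cell fluorescence measured and cell-free well background subtracted to build dose-response.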

The target of assay [2] is T2, recombinant integrin α4β1 (Homo sapiens, UniProt P05556+P13612).
T2 construct: purchased R&D Systems 5397-A3-050
Description: Integrin α4β1—VCAM-1 competition ELISA. The format is binding. To be noted: for IC50: read-out: ELISA α4β1 Assay IC50; for ELISA Assay Ratio β1/β7: ratio of ELISA IC50s, α4β1 over α4β7. In outline:
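Detection of bound ligand used HRP-conjugated anti-human IgG Fc, 1 h with agitation at room temperature. This followed a 2 h room-temperature, 300 rpm equilibration of compound in the coated wells. Washes were done in 50 mM Tris, 100 mM NaCl, 1 mM MnCl2, 0.05% Tween.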
In general terms: In an ELISA, binding on a coated surface is turned into a signal by an enzyme label.

For assay [3], the target named is T3, recombinant integrin α4β7 (Homo sapiens, UniProt P13612+P26010, DEL724-798).
T3 construct: purchased R&D Systems 5397-A3-050
T3 sequence (P13612 34-970 limits assumed): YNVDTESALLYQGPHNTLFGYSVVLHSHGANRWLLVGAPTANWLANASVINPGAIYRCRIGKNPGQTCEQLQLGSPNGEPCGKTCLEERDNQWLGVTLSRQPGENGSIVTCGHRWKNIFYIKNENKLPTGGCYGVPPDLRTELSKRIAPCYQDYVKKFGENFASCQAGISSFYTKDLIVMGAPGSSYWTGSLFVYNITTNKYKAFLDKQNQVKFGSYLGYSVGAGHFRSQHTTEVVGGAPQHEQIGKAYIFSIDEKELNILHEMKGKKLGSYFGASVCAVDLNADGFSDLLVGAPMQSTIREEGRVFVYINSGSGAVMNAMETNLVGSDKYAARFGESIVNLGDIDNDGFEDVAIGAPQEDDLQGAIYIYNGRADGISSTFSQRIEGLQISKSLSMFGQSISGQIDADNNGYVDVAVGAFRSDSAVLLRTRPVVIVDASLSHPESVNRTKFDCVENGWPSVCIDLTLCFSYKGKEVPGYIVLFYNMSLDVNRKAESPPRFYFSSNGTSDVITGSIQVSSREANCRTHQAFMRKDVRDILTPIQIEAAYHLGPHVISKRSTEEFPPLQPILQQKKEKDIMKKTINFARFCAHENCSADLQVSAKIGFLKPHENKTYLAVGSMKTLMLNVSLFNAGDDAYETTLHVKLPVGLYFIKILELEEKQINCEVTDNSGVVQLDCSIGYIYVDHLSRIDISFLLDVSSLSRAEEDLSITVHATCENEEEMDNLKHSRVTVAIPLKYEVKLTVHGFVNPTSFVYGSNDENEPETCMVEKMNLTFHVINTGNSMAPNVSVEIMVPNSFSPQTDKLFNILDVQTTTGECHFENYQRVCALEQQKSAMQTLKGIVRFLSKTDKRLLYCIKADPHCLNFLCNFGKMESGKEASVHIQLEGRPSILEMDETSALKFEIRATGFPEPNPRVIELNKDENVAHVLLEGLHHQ
T3 sequence (P26010 20-723 limits assumed): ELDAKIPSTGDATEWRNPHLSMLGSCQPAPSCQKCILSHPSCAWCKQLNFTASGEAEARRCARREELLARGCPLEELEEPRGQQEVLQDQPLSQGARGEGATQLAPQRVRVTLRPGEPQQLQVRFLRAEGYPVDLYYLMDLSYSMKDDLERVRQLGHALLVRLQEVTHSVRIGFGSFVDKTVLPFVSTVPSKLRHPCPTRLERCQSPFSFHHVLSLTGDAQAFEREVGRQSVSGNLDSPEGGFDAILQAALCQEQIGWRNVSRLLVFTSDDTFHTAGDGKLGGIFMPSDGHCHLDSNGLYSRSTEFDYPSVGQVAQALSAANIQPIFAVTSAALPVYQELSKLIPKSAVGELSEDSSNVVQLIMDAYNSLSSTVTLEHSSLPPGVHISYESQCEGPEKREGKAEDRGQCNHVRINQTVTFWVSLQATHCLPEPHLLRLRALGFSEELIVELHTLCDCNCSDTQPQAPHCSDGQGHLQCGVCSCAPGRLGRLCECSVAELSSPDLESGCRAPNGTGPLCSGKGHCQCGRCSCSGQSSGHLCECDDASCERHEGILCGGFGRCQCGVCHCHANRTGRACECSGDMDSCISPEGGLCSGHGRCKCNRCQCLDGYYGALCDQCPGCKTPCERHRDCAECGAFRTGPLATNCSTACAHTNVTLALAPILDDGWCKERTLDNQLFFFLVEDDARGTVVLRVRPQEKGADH
Description: Integrin α4β7—MAdCAM-1 ELISA competition assay. The format is binding. To be noted: read-out: ELISA α4β7 Assay IC50.

T2 sequence (P05556 21-728 limits assumed, one chain of several): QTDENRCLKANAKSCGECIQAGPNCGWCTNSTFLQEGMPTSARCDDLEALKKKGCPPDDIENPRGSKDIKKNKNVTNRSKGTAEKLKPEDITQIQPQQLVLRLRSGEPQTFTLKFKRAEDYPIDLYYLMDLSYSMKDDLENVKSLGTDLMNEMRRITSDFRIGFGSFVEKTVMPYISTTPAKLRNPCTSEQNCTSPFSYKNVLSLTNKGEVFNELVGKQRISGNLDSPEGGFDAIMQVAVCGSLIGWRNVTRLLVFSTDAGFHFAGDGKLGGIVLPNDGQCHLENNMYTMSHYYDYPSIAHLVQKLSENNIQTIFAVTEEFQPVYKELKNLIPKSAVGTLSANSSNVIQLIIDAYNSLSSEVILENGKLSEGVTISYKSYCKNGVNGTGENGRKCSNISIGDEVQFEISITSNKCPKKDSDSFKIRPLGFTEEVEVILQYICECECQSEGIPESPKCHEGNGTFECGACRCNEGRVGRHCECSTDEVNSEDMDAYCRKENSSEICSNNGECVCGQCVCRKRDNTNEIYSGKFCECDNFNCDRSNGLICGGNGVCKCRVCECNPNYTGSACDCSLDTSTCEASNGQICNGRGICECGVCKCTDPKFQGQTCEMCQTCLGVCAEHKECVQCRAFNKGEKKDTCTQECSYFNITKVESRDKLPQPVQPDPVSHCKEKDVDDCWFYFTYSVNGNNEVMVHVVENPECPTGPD
T1 sequence (P13612 34-1032): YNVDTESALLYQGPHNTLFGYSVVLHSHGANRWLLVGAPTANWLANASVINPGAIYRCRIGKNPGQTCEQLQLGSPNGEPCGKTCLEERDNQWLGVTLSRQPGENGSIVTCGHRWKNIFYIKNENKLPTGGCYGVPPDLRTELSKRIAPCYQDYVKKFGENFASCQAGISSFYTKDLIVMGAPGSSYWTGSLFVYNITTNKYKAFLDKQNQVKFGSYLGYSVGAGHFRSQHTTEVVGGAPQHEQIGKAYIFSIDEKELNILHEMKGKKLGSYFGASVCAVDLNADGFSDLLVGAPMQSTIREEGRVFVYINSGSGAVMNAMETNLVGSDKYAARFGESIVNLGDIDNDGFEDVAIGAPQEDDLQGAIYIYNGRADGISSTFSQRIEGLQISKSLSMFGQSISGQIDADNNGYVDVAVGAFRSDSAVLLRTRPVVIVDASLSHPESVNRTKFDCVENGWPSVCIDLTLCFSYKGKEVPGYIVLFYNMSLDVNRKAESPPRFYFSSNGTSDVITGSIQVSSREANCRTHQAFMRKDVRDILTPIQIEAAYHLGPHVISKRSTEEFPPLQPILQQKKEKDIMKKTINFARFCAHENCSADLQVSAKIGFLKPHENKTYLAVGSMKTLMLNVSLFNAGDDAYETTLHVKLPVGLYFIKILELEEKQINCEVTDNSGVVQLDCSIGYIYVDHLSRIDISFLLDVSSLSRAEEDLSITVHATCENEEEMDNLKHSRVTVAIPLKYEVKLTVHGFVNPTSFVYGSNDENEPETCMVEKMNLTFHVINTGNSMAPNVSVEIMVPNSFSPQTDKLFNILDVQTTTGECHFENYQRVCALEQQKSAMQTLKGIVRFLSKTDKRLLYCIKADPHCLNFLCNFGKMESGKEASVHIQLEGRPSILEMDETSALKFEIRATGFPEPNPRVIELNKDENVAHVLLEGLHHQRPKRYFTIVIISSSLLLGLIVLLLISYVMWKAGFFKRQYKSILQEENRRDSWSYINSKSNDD
T1 sequence (P05556 21-798): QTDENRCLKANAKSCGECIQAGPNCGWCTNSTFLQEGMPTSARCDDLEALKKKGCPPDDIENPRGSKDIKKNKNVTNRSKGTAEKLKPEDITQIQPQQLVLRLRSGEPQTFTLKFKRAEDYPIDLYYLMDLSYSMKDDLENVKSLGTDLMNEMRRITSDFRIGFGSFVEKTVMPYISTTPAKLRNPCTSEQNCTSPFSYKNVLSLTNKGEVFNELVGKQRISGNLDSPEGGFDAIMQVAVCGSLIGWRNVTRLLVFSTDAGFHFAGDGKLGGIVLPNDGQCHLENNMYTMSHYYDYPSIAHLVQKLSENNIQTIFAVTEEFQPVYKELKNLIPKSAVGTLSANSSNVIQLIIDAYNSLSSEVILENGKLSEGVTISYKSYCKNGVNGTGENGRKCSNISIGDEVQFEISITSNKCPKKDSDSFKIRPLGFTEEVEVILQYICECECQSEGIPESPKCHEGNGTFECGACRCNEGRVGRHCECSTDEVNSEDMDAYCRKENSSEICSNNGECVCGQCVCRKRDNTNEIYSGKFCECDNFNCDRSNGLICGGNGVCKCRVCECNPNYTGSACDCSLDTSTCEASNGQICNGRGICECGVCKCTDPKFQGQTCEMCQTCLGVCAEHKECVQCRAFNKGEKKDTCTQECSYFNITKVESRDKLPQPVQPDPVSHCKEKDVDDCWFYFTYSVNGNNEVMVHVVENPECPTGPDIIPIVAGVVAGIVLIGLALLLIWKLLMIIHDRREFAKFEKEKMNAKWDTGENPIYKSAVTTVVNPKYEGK

For `CC(C)C[C@@H]1NC(=O)C[C@H](CCCCN)N(C)C(=O)[C@H](CCCCNC(=O)CCCCCC(=O)NCCCC[C@@H]2NC(=O)[C@@H]3CCCN3[C@H](C(=O)NC(C)(C)C)[C@H](C)NC(=O)[C@H]([C@@H](C)O)NC(=O)[C@H](CC(=O)O)NC(=O)[C@H](CC(C)C)NC(=O)C[C@H](CCCCN)N(C)C2=O)NC(=O)[C@@H]2CCCN2[C@H](C(=O)NC(C)(C)C)[C@H](C)NC(=O)[C@H]([C@@H](C)O)NC(=O)[C@H](CC(=O)O)NC1=O` [Compound 532], the IC50 came out at 7150 nM in assay [1], 6.9 nM in assay [2] and 6.1 nM in assay [3].
`CC(C)C[C@@H]1NC(=O)C[C@H](CCCCN)N(C)C(=O)[C@H](CCCCNC(=O)CCCCCCCC(=O)NCCCC[C@@H]2NC(=O)[C@@H]3CCCN3[C@H](C(=O)NC(C)(C)C)[C@H](C)NC(=O)[C@H]([C@@H](C)O)NC(=O)[C@H](CC(=O)O)NC(=O)[C@H](CC(C)C)NC(=O)C[C@H](CCCCN)N(C)C2=O)NC(=O)[C@@H]2CCCN2[C@H](C(=O)NC(C)(C)C)[C@H](C)NC(=O)[C@H]([C@@H](C)O)NC(=O)[C@H](CC(=O)O)NC1=O` [Compound 533]: in assay [1], the IC50 turned out to be 4230 nM and the “Ratio Ramos/RPMI” value is listed as 257. In assay [2], the “ELISA Assay Ratio β1/β7” value amounted to 1.2 and the IC50 stood at 6.2 nM. In addition, in assay [3], the IC50 was determined as 5 nM.
For the compound `CC(C)C[C@@H]1NC(=O)C[C@H](CCCCN)N(C)C(=O)[C@H](CCCCNC(=O)c2ccccc2-c2ccccc2C(=O)NCCCC[C@@H]2NC(=O)[C@@H]3CCCN3[C@H](C(=O)NC(C)(C)C)[C@H](C)NC(=O)[C@H]([C@@H](C)O)NC(=O)[C@H](CC(=O)O)NC(=O)[C@H](CC(C)C)NC(=O)C[C@H](CCCCN)N(C)C2=O)NC(=O)[C@@H]2CCCN2[C@H](C(=O)NC(C)(C)C)[C@H](C)NC(=O)[C@H]([C@@H](C)O)NC(=O)[C@H](CC(=O)O)NC1=O` [Compound 535], the IC50 in assay [1] was determined as 9510 nM; in assay [2] it was 9.7 nM; in assay [3], 8.6 nM. For the same compound, the “Ratio Ramos/RPMI” value in assay [1] was 634. The “ELISA Assay Ratio β1/β7” value in assay [2] turned out to be 0.9.
For the compound `CC(C)C[C@@H]1NC(=O)C[C@H](CCCCN)N(C)C(=O)[C@H](CCCCNC(=O)CCOCCOCCOCCOCCOCCOCCOCCC(=O)NCCCC[C@@H]2NC(=O)[C@@H]3CCCN3[C@H](C(=O)NC(C)(C)C)[C@H](C)NC(=O)[C@H]([C@@H](C)O)NC(=O)[C@H](CC(=O)O)NC(=O)[C@H](CC(C)C)NC(=O)C[C@H](CCCCN)N(C)C2=O)NC(=O)[C@@H]2CCCN2[C@H](C(=O)NC(C)(C)C)[C@H](C)NC(=O)[C@H]([C@@H](C)O)NC(=O)[C@H](CC(=O)O)NC1=O` [Compound 536], in assay [1], the IC50 is 7820 nM and the “Ratio Ramos/RPMI” value is 479. Further, in assay [2], the “ELISA Assay Ratio β1/β7” value stood at 0.9 and the IC50 was found to be 8.9 nM. The IC50 in assay [3] was found to be 9.5 nM.
As to `CC(C)C[C@@H]1NC(=O)C[C@H](CCCCN)N(C)C(=O)[C@H](CCCCNC(=O)c2cc(C(=O)NCCCC[C@@H]3NC(=O)[C@@H]4CCCN4[C@H](C(=O)NC(C)(C)C)[C@H](C)NC(=O)[C@H]([C@@H](C)O)NC(=O)[C@H](CC(=O)O)NC(=O)[C@H](CC(C)C)NC(=O)C[C@H](CCCCN)N(C)C3=O)cc(C(=O)NCCCC[C@@H]3NC(=O)[C@@H]4CCCN4[C@H](C(=O)NC(C)(C)C)[C@H](C)NC(=O)[C@H]([C@@H](C)O)NC(=O)[C@H](CC(=O)O)NC(=O)[C@H](CC(C)C)NC(=O)C[C@H](CCCCN)N(C)C3=O)c2)NC(=O)[C@@H]2CCCN2[C@H](C(=O)NC(C)(C)C)[C@H](C)NC(=O)[C@H]([C@@H](C)O)NC(=O)[C@H](CC(=O)O)NC1=O` [Compound 538], the IC50 in assay [1] came out at 7650 nM; in assay [2], 13 nM; in assay [3] it was 10 nM. For the same compound, the “ELISA Assay Ratio β1/β7” value in assay [2] is given as 1.3.

The values are drawn from patent publication US11713338B2, “Cyclic peptides multimers targeting α-4-β-7 integrin” (priority 2016, dated 2023).
